From patent EP2193713A1, “Method for fighting animal pests without damaging pollinating insects” (Bayer CropScience AG, priority 2008, dated 2010)
Where two headings read alike, the source gives them in different places.

System: Apis mellifera
Format: in vivo
Description: Der Test wurde gemäß EPPO (European Plant Protection Organisation) Leitlinie 170 wie folgt durchgeführt:
Die Mortalität von Arbeiterbienen vor dem Bienenstock wird mittels einer Falle für tote Bienen (dead bee trap) bestimmt. Die Falle besteht aus Maschendraht und ist vor dem Bienenstock angebracht. Einzelne, lebende Bienen können die Maschen des Drahts passieren, der Transport toter Bienen durch die Maschen ist nicht möglich, weswegen tote Bienen sich in der Falle ansammeln. Tabelle 1 (siehe auch Figur 1)

`O=C1C=C(N(Cc2ccc(Cl)nc2)CC(F)F)CO1` [I-5, 4-{[(6-Chlorpyrid-3-yl)methyl](2,2-difluorethyl)amino}furan-2(5H)-on] was tested, and the “Zahl toter Arbeiterbienen” value (75 g a.s./ha, 0 DAA b (15:15 Uhr)) was 0, the “Zahl toter Arbeiterbienen” value (75 g a.s./ha, 0 DAA c (17:15 Uhr)) was 0,7 and the “Zahl toter Arbeiterbienen” value (75 g a.s./ha, 1 DAA) was 0. For the same compound, the “Zahl toter Arbeiterbienen” value (75 g a.s./ha, 2 DAA) was 0,3, the “Zahl toter Arbeiterbienen” value (75 g a.s./ha, 3 DAA) was 0,3 and the “Zahl toter Arbeiterbienen” value (75 g a.s./ha, 4 DAA) was 3,7. The “Zahl toter Arbeiterbienen” value (75 g a.s./ha, 5 DAA) was 0,3, the “Zahl toter Arbeiterbienen” value (75 g a.s./ha, 6 DAA) was 4,3 and the “Zahl toter Arbeiterbienen” value (75 g a.s./ha, 11 DAA) was 0. The “Zahl toter Arbeiterbienen” value (75 g a.s./ha, -3 DAA (before application)) was 0,3, the “Zahl toter Arbeiterbienen” value (150 g a.s./ha, 0 DAA b (15:15 Uhr)) was 1,3 and the “Zahl toter Arbeiterbienen” value (150 g a.s./ha, 0 DAA c (17:15 Uhr)) was 0,3. For the same compound, the “Zahl toter Arbeiterbienen” value (150 g a.s./ha, 1 DAA) was 0, the “Zahl toter Arbeiterbienen” value (150 g a.s./ha, 2 DAA) was 0 and the “Zahl toter Arbeiterbienen” value (150 g a.s./ha, 3 DAA) was 0. The “Zahl toter Arbeiterbienen” value (150 g a.s./ha, 4 DAA) was 1,7, the “Zahl toter Arbeiterbienen” value (150 g a.s./ha, 5 DAA) was 0,7 and the “Zahl toter Arbeiterbienen” value (150 g a.s./ha, 6 DAA) was 2. The “Zahl toter Arbeiterbienen” value (150 g a.s./ha, 11 DAA) was 1,7, the “Zahl toter Arbeiterbienen” value (150 g a.s./ha, -3 DAA (before application)) was 0,3 and the “Mortalität von Arbeiterbienen vor dem Bienenstock” value (result in words, tunnel test, spray, I-5 75 und 150 g a.s./ha, Thiamethoxam 50 g a.s./ha) was “keine Mortalität”.
